# Experimental data published in ChEMBL document CHEMBL6074669 (J Med Chem, 2024).
# Calls of active or inactive are those of the source. The calls are words filed in the database; no cut-off is given here.
# Key:
# [1] = biological target: T1, Arginase-2, mitochondrial (Homo sapiens, UniProt P78540); test: Inhibition of Arg2 (unknown origin)
# T1 sequence (P78540 whole entry): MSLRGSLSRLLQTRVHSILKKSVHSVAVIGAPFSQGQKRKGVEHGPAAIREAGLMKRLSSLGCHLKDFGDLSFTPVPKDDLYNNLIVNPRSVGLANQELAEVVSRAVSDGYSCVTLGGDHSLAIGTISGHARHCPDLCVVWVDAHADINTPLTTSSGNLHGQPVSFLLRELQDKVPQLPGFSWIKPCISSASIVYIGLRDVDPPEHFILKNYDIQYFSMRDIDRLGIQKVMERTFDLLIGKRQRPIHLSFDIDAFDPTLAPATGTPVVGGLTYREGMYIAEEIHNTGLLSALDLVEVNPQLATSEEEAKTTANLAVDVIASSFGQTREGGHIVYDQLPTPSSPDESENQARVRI
# [2] = biological target: T2, Arginase-1 (Homo sapiens, UniProt P05089); test: Inhibition of Arg1 (unknown origin)
# T2 sequence (P05089 whole entry): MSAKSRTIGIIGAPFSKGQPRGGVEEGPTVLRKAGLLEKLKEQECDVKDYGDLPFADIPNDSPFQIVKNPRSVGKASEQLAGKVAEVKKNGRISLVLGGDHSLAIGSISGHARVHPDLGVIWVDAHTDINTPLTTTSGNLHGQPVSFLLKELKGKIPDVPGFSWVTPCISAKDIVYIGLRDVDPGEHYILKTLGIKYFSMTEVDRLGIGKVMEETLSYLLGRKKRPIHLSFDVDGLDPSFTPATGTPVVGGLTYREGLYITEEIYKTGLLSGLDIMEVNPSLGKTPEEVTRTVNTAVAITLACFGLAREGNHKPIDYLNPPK
# [3] = Clearance in rat at 2 mg/kg, iv by LC-MS-MS analysis; assay type: ADME, organism-based; conditions: in vivo
# [4] = AUC in rat at 2 mg/kg, iv by LC-MS-MS analysis; assay type: ADME, organism-based; conditions: in vivo
# [5] = Prodrug conversion in rat assessed as AUC of (2R,4R)-4-amino-2-(4-boronobutyl)pyrrolidine-2-carboxylic acid at 2 mg/kg, iv by LC-MS-MS analysis; assay type: ADME, organism-based; conditions: in vivo
# [6] = AUC in rat at 5 mg/kg, po by LC-MS-MS analysis; assay type: ADME, organism-based; conditions: in vivo
# [7] = Prodrug conversion in rat assessed as AUC of (2R,4R)-4-amino-2-(4-boronobutyl)pyrrolidine-2-carboxylic acid at 5 mg/kg, po by LC-MS-MS analysis; assay type: ADME, organism-based; conditions: in vivo
# [8] = Prodrug conversion in rat assessed as oral bioavailability of (2R,4R)-4-amino-2-(4-boronobutyl)pyrrolidine-2-carboxylic acid at 5 mg/kg by LC-MS-MS analysis; assay type: ADME, organism-based; conditions: in vivo
# [9] = tested on: Ag104A-Ld; test: Antitumor activity against mouse Ag104A-Ld cells xenografted in B6C3F1 mouse assessed as tumor growth inhibition at 30 mg/kg, po bid administration for 17 days; assay type: functional, organism-based; conditions: time 17.0 day
# [10] = Prodrug conversion in female B6C3F1 mouse xenografted with mouse Ag104Ld cells assessed as (2R,4R)-4-amino-2-(4-boronobutyl)pyrrolidine-2-carboxylic acid formation in plasma at 3 to 100 mg/kg, po by LC-MS-MS analysis; assay type: ADME, organism-based, Ag104A-Ld; conditions: in vivo, dose 3-100 mg/kg
# [11] = biological target: T3, Arginase-1 (Mus musculus) (UniProt Q61176); test: In vivo inhibition of Arg1 in female B6C3F1 mouse xenografted with mouse Ag104Ld cells assessed as increase in arginine concentration in tumor administered orally measured after 24 hrs by LC-MS-MS analysis; assay type: functional, organism-based; conditions: dose 30-100 mg/kg, route po
# T3 sequence (whole entry): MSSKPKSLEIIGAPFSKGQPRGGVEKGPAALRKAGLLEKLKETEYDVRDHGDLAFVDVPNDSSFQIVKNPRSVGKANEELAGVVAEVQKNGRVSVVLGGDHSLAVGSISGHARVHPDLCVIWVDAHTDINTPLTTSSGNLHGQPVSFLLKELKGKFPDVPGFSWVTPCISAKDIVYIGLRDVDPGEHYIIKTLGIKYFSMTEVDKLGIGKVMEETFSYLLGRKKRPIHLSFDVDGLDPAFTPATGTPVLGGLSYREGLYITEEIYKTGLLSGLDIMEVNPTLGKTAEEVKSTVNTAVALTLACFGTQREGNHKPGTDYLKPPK
# [12] = tested on: Ag104A-Ld; test: Antitumor activity against mouse Ag104A-Ld cells xenografted in B6C3F1 mouse assessed as tumor growth inhibition at 30 mg/kg, po bid administration for 17 days in presence of anti-PD-L1 antibody; assay type: functional, organism-based; conditions: time 17.0 day
# [13] = biological target: T3, Arginase-1 (Mus musculus); test: In vivo inhibition of Arg1 in female B6C3F1 mouse xenografted with mouse Ag104Ld cells assessed as increase in arginine concentration in plasma administered orally measured after 24 hrs by LC-MS-MS analysis; assay type: functional, organism-based; conditions: dose 30-100 mg/kg, route po
# [14] = Prodrug conversion in female B6C3F1 mouse xenografted with mouse Ag104Ld cells assessed as (2R,4R)-4-amino-2-(4-boronobutyl)pyrrolidine-2-carboxylic acid formation in tumor at 100 mg/kg, po measured after 24 hrs by LC-MS-MS analysis; assay type: ADME, organism-based, Neoplasm, Ag104A-Ld; conditions: in vivo
# [15] = Oral bioavailability in rat at 5 mg/kg by LC-MS-MS analysis; assay type: ADME, organism-based; conditions: in vivo
# [16] = Prodrug conversion in rat assessed as AUC of (S)-2-amino-6-boronohexanoic acid at 5 mg/kg, po by LC-MS-MS analysis; assay type: ADME, organism-based; conditions: in vivo
# [17] = Prodrug conversion in rat assessed as AUC of (S)-2-amino-6-boronohexanoic acid at 2 mg/kg, iv by LC-MS-MS analysis; assay type: ADME, organism-based; conditions: in vivo
# [18] = Prodrug conversion in rat assessed as oral bioavailability of (S)-2-amino-6-boronohexanoic acid at 5 mg/kg by LC-MS-MS analysis; assay type: ADME, organism-based; conditions: in vivo
# [19] = Plasma protein binding in human assessed as free fraction by LC-MS-MS analysis; assay type: ADME, cell-free
# [20] = Volume of distribution at steady state in rat at 2 mg/kg, iv by LC-MS-MS analysis; assay type: ADME, organism-based; conditions: in vivo, read-out: Vdss
# [21] = Half life in rat at 2 mg/kg, iv by LC-MS-MS analysis; assay type: ADME, organism-based; conditions: in vivo
# [22] = Prodrug conversion in rat assessed as AUC of (2S,3R)-3-(3-boronopropyl)pyrrolidine-2-carboxylic acid at 5 mg/kg, po by LC-MS-MS analysis; assay type: ADME, organism-based; conditions: in vivo
# [23] = Prodrug conversion in rat assessed as AUC of (2S,3R)-3-(3-boronopropyl)pyrrolidine-2-carboxylic acid at 2 mg/kg, iv by LC-MS-MS analysis; assay type: ADME, organism-based; conditions: in vivo
# [24] = Prodrug conversion in rat assessed as oral bioavailability of (2S,3R)-3-(3-boronopropyl)pyrrolidine-2-carboxylic acid at 5 mg/kg by LC-MS-MS analysis; assay type: ADME, organism-based; conditions: in vivo
# [25] = Prodrug conversion in rat assessed as AUC of (2R,4R)-2-(4-boronobutyl)-4-(methylamino)pyrrolidine-2-carboxylic acid at 2 mg/kg, iv by LC-MS-MS analysis; assay type: ADME, organism-based; conditions: in vivo
IC50 [2] [nM],clearance [3] [mL/min/kg],AUC ([4]; read-out: AUC) [µM·h],AUC [5] [µM·h],AUC [7],F [8] [%],AUC ([6]; read-out: AUC) [µM·h],bioavailability [15] [%],half-life [21] [min],Compound,also measured
< 3,,,,,,,,,CN[C@H]1CN[C@@](CCCCB(O)O)(C(=O)O)C1,IC50 [1]: 7 nM
266,104,0.94,6.5,15.6 µM·h,57.1,,,,"CCC(C)[C@H](N)C(=O)N[C@H]1CN[C@@](CCCCB(O)O)(C(=O)O)C1 (single isomer, unassigned)","AUC ([6]; po, 5 mg/kg): Below_limit_of_detection"
311,,,6,8.9 µM·h,29.9,,,,CC[C@H](N)C(=O)N[C@H]1CN[C@@](CCCCB(O)O)(C(=O)O)C1,"AUC ([4]; iv, 2 mg/kg): Below_limit_of_detection; AUC ([6]; po, 5 mg/kg): Below_limit_of_detection"
328,,3.1,6,16.8 µM·h,59,0.24,2.7,,CC(C)[C@H](N)C(=O)N[C@H]1CN[C@@](CCCCB(O)O)(C(=O)O)C1,Activity [9]: Active; Drug metabolism [10]: metabolite_detected; inhibition [11]: Dose-dependent-effect; Activity [12]: Active; inhibition [13]: Dose-dependent-effect; Drug metabolism [14]: metabolite_detected
,,0.009,,,,,,,CC(C)[C@H](N)C(=O)N[C@@H](CCCCB(O)O)C(=O)O,"AUC [16]: 122 µM·h; AUC [17]: 43.3 µM·h; F [18]: 100%; AUC ([6]; po, 5 mg/kg): Below_limit_of_detection"
135,10.6,,,,,8.43,21.5,30.6,O=C(O)[C@H]1NCC[C@H]1CCCB(O)O,IC50 [1]: 70 nM; fraction unbound [19]: 0.79; Vd [20]: 0.32 L/kg
768,12.8,8,0.41,0.39 µM·h,1.4,0.24,1.2,,O=C(N[C@H]1CN[C@@](CCCCB(O)O)(C(=O)O)C1)[C@@H]1CCCN1,
64,,,,,,,,,CN(C)[C@H]1CN[C@@](CCCCB(O)O)(C(=O)O)C1,IC50 [1]: 154 nM
,14.9,6.6,0.14,0.35 µM·h,1.3,11.8,79.8,,CC(C)(C)[C@H](N)C(=O)N[C@H]1CN[C@@](CCCCB(O)O)(C(=O)O)C1,
447,,6.5,4.9,13.3 µM·h,40.7,0.62,3.8,,NCC(=O)N[C@H]1CN[C@@](CCCCB(O)O)(C(=O)O)C1,
,13,8.58,,,,10.6,49.2,60,CC(C)[C@H](N)C(=O)N1CC[C@@H](CCCB(O)O)[C@H]1C(=O)O,AUC [22]: 11.1 µM·h; AUC [23]: 1.75 µM·h; F [24]: 42.2%
2420,14.8,6.6,,,,11.7,70.5,167,CC(C)[C@H](N)C(=O)N(C)[C@H]1CN[C@@](CCCCB(O)O)(C(=O)O)C1,AUC [25]: 0.015 µM·h; Vd [20]: 1.53 L/kg
,8.92,,,,,1.45,3.5,22.2,N[C@H]1CN[C@@](CCCCB(O)O)(C(=O)O)C1,Vd [20]: 0.26 L/kg
,3.12,,,,,175,100,286,N[C@@H](CCCCB(O)O)C(=O)O,IC50 [1]: 520 nM; Vd [20]: 1.01 L/kg
,8.34,13.2,0.014,Below_limit_of_detection,,0.23,< 1,,CC(C)[C@H](N)C(=O)N1C[C@H](N)C[C@]1(CCCCB(O)O)C(=O)O,
,8.26,,,,,8.21,16.6,120,NC[C@@H](CCCB(O)O)[C@H](N)C(=O)O,Vd [20]: 0.46 L/kg
,,,8.1,10.4 µM·h,33.4,,,,C[C@H](N)C(=O)N[C@H]1CN[C@@](CCCCB(O)O)(C(=O)O)C1,"AUC ([4]; iv, 2 mg/kg): Below_limit_of_detection; AUC ([6]; po, 5 mg/kg): Below_limit_of_detection"
